The record followed here is patent publication EP0951284B1, “[…] DERIVATIVES” (priority 1996, dated 1998).

Counter-ions that a name gives are not always drawn.

In one experiment the target is T1, whole brain AChE (Mus musculus, UniProt P21836).
T1 construct: the brains rapidly removed (minus cerebellum), weighed and homogenized in 0.1M phosphate buffer pH 8.0; from tissue; host or cells: mouse brain (minus cerebellum) homogenate supernatant
T1 sequence (P21836 32-614): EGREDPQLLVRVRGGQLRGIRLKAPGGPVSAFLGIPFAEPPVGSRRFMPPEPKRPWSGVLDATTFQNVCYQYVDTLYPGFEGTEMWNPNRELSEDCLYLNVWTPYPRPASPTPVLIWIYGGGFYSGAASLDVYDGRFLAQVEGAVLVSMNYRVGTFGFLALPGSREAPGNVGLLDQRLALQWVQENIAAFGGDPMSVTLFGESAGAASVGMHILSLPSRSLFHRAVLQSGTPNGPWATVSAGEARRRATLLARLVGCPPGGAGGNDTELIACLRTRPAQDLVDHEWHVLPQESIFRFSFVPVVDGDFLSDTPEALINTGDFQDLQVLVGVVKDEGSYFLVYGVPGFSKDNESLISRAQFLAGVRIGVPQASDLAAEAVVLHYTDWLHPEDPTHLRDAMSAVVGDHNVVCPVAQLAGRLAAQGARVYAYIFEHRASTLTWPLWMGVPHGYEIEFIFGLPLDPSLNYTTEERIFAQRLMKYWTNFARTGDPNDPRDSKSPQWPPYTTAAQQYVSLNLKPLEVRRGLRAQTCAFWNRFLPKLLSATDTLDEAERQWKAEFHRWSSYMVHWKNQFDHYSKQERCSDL
The experiment in a line: Ex vivo measurement of brain AChE inhibition after sub-cutaneous administration. Particulars: for Time to peak activity t / Time to return to 50% of peak t: AChE inhibition; for ED50: sc, sub-cutaneous, mouse whole brain, at peak of activity, read-out: AChE Inhibition Ex vivo ED50 (AC). Type of experiment: in vivo, mice. The procedure:
Test drugs or saline were administered sub-cutaneously to male mice (Sabra strain, 28-35g). At least 4-5 mice were used per dose and a minimum of 3 doses per drug were tested. The mice were sacrificed 15, 30, 60, 70, 90, 120 or 180 minutes after drug administration, the brains rapidly removed (minus cerebellum), weighed and homogenized in 0.1M phosphate buffer pH 8.0, containing Triton (1mg/100g tissue) and centrifuged to remove cell debris. Aliquots (25 µl) of the supernatant were then incubated with acetylthiocholine and DTNB. AChE activity measured as described above. The % inhibition of whole brain AChE by each dose of drug was calculated by comparison with enzyme activity from 3 saline treated control mice run at the same time.

The target in the next experiment is T2, MAO-A (Rattus norvegicus, UniProt P21396).
T2 sequence (P21396 1-526): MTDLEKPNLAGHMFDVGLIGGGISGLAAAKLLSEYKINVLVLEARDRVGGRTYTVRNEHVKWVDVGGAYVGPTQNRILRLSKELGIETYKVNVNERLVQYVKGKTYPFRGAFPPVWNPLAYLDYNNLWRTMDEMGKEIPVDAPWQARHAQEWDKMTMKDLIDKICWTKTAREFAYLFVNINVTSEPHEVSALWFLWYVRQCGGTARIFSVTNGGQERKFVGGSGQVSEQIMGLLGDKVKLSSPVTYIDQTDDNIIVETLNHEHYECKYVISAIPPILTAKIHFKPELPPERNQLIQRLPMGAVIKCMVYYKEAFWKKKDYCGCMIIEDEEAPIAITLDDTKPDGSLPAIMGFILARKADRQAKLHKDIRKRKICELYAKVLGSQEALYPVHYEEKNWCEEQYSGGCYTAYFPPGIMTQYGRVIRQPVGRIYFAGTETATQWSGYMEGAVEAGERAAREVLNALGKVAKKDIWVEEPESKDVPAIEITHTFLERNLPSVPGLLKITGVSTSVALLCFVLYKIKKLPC
The experiment in a line: Inhibition of MAO activity in vitro, rat brain homogenate, 5-HT substrate.

The target in a further experiment is T3, MAO-B (Rattus norvegicus, UniProt P19643).
T3 sequence (P19643 1-520): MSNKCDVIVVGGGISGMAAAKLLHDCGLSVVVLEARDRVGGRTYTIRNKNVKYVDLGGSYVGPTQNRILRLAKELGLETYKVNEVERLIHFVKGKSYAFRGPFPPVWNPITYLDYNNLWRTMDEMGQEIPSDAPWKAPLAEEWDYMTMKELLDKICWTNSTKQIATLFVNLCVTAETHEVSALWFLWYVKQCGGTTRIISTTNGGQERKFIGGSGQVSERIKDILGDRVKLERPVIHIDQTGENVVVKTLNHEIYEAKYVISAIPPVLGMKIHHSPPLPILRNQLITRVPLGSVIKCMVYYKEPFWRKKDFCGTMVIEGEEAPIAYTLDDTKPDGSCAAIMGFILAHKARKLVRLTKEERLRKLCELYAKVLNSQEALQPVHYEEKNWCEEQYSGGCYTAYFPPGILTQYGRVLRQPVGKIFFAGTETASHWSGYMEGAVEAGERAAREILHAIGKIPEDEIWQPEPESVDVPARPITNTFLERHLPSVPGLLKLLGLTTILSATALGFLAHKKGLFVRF
The experiment in a line: Inhibition of MAO activity in vitro, rat brain homogenate, PEA substrate. Particulars: PEA 50µM. Also noted: The MAO enzyme source was a homogenate of rat brain in 0.3M sucrose; from tissue; host or cells: rat brain homogenate (600G supernatant). Type of experiment: biochemical.

Description for MAO-A: (§1) The MAO enzyme source was a homogenate of rat brain in 0.3M sucrose, which was centrifuged at 600G for 15 minutes. The supernatant was diluted appropriately in 0.05M phosphate buffer, and pre-incubated with serial dilutions of test compounds for 20 minutes at 37°C. ^14C-Labeled substrates (2-phenylethylamine, hereinafter PEA; 5-hydroxytryptamine, hereinafter 5-HT) were then added, and the incubation continued for a further 20 minutes (PEA), or 30-45 minutes (5-HT). Substrate concentrations used were 50µM (PEA) and 1mM (5-HT). In the case of PEA, enzyme concentration was chosen so that not more than 10% of the substrate was metabolized during the course of the reaction. The deaminated products were extracted into toluene-ethyl acetate (1:1, v/v) containing 0.6% (w/v) 2,5-diphenyloxazole prior to determination by liquid scintillation counting. Radioactivity in the eluate indicates the production of neutral and acidic metabolites formed as a result of MAO activity. Activity of MAO in the sample was expressed as a percentage of control activity in the absence of inhibitors after subtraction of appropriate blank values The activity determined using PEA as substrate is referred to as MAO-B, and that determined using 5-HT as MAO-A.
Description for MAO-B: as §1

As for `C#CCNCCc1cccc(OC(=O)N(C)C)c1` [Compound 11], at whole brain AChE, the “Time to peak activity t” value is listed as 15 min, the “Time to return to 50% of peak t” value is 70 min and the ED50 was 3.2 µmol/kg. At MAO-A, this molecule showed a concentration for half-maximal inhibition (IC50) of 2.5 µM. Further, the half-inhibitory concentration (IC50) at MAO-B amounted to 25 µM.
The corresponding values for `C#CCNC(C)Cc1cccc(OC(=O)N(C)C)c1` (centres unmarked) [Compound 16] are 15 min, 70 min, 2.3 µmol/kg, 7 µM and 6 µM.
The corresponding values for `C#CCN(C)CCc1cccc(OC(=O)N(C)C)c1` [Compound 12] are 15 to 30 min, 120 min, 2.8 µmol/kg, 0.38 µM and 2.5 µM.
The corresponding values for `C#CCNC(C)Cc1cccc(OC(=O)N(C)CC)c1` (stereo not drawn) [Compound 17, 3-(N-Me,N-Etcarbamyloxy)α-methyl, N-propargyl phenethylamine.HCl] are 30 to 60 min, 120 min, 64 µmol/kg, 12 µM and 2 µM.

As a reminder, the ED50 is the midpoint of the dose-response relation. What is called IC50 is the concentration at which inhibition is half-maximal. A lower IC50 goes with higher potency.
